# Test results reported in patent publication US20030073730A1, “Use of amino-isoxazolidone compounds for treatment of memory impairment following traumatic brain injury” (G.D. Searle & Co., priority 1994, published 2003).
# Columns and labels:
# [1] = tested on: mentally disturbed patients; conditions: 500 mg per day; cited from earlier work
# [2] = tested on: patients with post-traumatic memory impairment; experiment: Assay C: Post-Traumatic Memory Impairment Study (WMS and MAS); format: in vivo, human; set-up: MAS Visual Memory score, least-square mean corrected for baseline / MAS Visual Memory, mean change from baseline / WMS Logical Memory score, mean / WMS Visual Reproduction score, mean / MAS Visual Memory score, mean / MAS Short Term Memory score, mean / MAS Verbal Memory score, mean: scale not given here
# Method: The primary objective of this pilot study was to assess in patients with post-traumatic memory impairment: 1) The effect of a single 15 mg dose of cycloserine using the Wechsler Memory Scale (WMS) [D. Wechsler, Wechsler Memory Scale, Manual., Psychological Corporation, New York (1945)]; and 2) The effect of 5 multiple doses of 15 mg of cycloserine over 72 hours using the Memory Assessment Scales (MAS) [J. M Williams, The Memory Assessment Scales., Pyschological Assessment Resources, Odessa, Fla. (1991)]. The secondary objective of this study was to evaluate the safety of cycloserine in patients with traumatic brain injury.
# The study was conducted by six investigators at six investigational sites in the United States. This was a multicenter, randomized, doubleblind, parallel group, placebo-controlled study in headtrauma patients who were experiencing significant memory disorder. Patients were randomized to receive placebo or 15 mg doses of cycloserine for a total of five equally spaced doses (morning and evening) over a 72-hour period. Safety and efficacy measurements were obtained at the screening and on Days 1 through 4 of the study. A sufficient number of patients were enrolled in the study to assure that 60 evaluable patients (30 in the cycloserine treatment group and 30 in the placebo treatment group) would complete the study.
# Patients considered for enrollment were to have sustained closed head injury (ICD-9-CM#800) and post-traumatic memory impairment established by clinical examination supported by the Hahnemann Orientation and Memory Examination (HOME) [J. M. Williams, In: C. J. Long, L. Ross and M. Mutchnick, eds. Traumatic Brain Injury, Plenum, N.Y. (1990)]. The Anterograde Amnesia score was to be between 0 and 21 inclusive and the patient was to have sufficient cognitive recovery to complete the Hahnemann Memory Screening Test (MST) with a score of at least 9 [J. M. Williams, Ibid.]. Patients were to be at least 18 years of age, weighing between 40 and 100 kg, and female patients could not be at risk of pregnancy. Patients were to have a stable medical condition following the traumatic injury and be judged by the investigator to have adequate nutritional status. [Patients could have other traumatic injuries provided they were under treatment and there was no clinically significant infection or general sepsis.]
# Criteria for exclusion from the study included current or history of significant systemic disorder, brain disorder, or any neurological disorder with cognitive implications other than traumatic brain injury (e.g., brain tumor). Also excluded were patients with current or history of diagnosed epilepsy or documented convulsions, or clinically significant abnormalities of thyroid function, folic acid or B12. Clinically significant cardiovascular, renal, pulmonary, hepatic, gastrointestinal, infectious or hematological illness could preclude patient participation in the study (judgment of the Investigator). Concomitant medication, or medication given within seven days prior to the start of the study could preclude patient participation in the study (judgment of the Investigator and/or Clinical Monitor). Inability to follow study procedures, poor comprehension of study language, uncorrectable loss of hearing or eyesight which would interfere with study participation excluded patients from the study. Patients who had received an acridine derivative within 90 days prior to enrollment or another investigational drug within 30 days enrollment or who were known to have a hypersensitivity to cycloserine or related compounds were also excluded. This study also excluded patients taking or expected to take Hydergine, cerebral vasodilators, nootropics, choline, lecithin or amino acids. Clinically significant laboratory values outside the normal range or previous admission to the study excluded patients from participation in the study.
# All study medication was provided by G. D. Searle & Co., Skokie, Ill. […]
# [3] = tested on: normal young and elderly human volunteers; conditions: single oral doses of 5 and 15 mg; cited from earlier work
# [4] = tested on: elderly population; conditions: absence of scopolamine, single oral doses of 5 and 15 mg; cited from earlier work
# [5] = molecular target: T1, NMDA receptor complex, [3H]TCP binding to synaptic plasma membranes (Rattus norvegicus, UniProt P35439); experiment: Assay B: TCP Modulation Assay (stimulation of [3H]TCP binding); conditions: for effect on glycine dose-response of [3H]TCP binding: D-cycloserine 0-100 μM
# T1 construct: Triton X-100 washed synaptic plasma membranes (SPM) prepared from rat forebrain; from tissue; host or cells: rat forebrain synaptic plasma membranes (male Sprague-Dawley, 30-45 days old), Triton X-100 washed
# Method: [^3H]TCP binding was performed using Triton X-100 washed synaptic plasma membranes (SPM) prepared from rat forebrain (30-45 day old, male SpragueDawley; Sasco, St. Charles, Mo.) as described previously [J. W. Thomas, W. F. Hood, J. B. Monahan, P. C. Contreras and T. L. O'Donohue, Brain Res., 442, 396-398 (1988)]. […] The samples were then filtered through glass fiber filters (Schleicher and Schuell #32) which were pretreated with 0.05% (v/v) polyethylenimine. The filters were washed and the radioactivity quantitated by liquid scintillation spectrometry. […] The EC50 values for the stimulation of [^3H]TCP binding were determined using a four parameter logistic regression analysis.
compound,measurement,setting,value
"NC1CONC1=O (single isomer, unassigned) [D-cycloserine, 4-amino-3-isoxazolidone]",clinical response in mental disorders,[1],"improvements in depression, insomnia, anexoria or tension were found for some patients"
same,"MAS Short Term Memory score, mean",[2]; Baseline,81.7
same,"MAS Verbal Memory score, mean",[2]; Baseline,78.2
same,"MAS Visual Memory score, mean",[2]; Baseline,77.2
same,"WMS Logical Memory score, mean","[2]; Baseline, prior to first dose",8.88
same,"WMS Visual Reproduction score, mean","[2]; Baseline, prior to first dose",8.70
same,"WMS Logical Memory score, mean","[2]; Day 2, after one 15 mg dose",8.24
same,"WMS Visual Reproduction score, mean","[2]; Day 2, after one 15 mg dose",8.42
same,WMS Visual Reproduction score corrected for baseline versus placebo,"[2]; Day 2, one dose, p=0.59",did not differ significantly
same,WMS Logical Memory score corrected for baseline versus placebo,"[2]; Day 2, one dose, p=0.72",did not differ significantly
same,"MAS Short Term Memory score, mean","[2]; Day 4, after five 15 mg doses",85.9
same,"MAS Verbal Memory score, mean","[2]; Day 4, after five 15 mg doses",75.8
same,"MAS Visual Memory score, mean","[2]; Day 4, after five 15 mg doses",85.5
same,"MAS Visual Memory score, least-square mean corrected for baseline","[2]; Day 4, five 15 mg doses, placebo 78.7",87.5
same,"MAS Visual Memory, mean change from baseline","[2]; Day 4, five 15 mg doses, placebo −1.50",8.54
same,MAS Visual Memory score versus placebo,"[2]; Day 4, p=0.023",significantly higher
same,MAS Verbal Memory versus placebo,"[2]; Day 4, p=0.31",not significantly different
same,MAS Short Term Memory versus placebo,"[2]; Day 4, p=0.72",not significantly different
same,effect on scopolamine-induced memory deficits,[3],can ameliorate some memory deficits induced by scopolamine
same,effect on cognitive parameters,[4],significant positive effects on the cognitive parameters
same,effect on glycine dose-response of [3H]TCP binding,[5]; glycine concentrations 0.1-15 μM,rightward shift in the dose-response curve
same,effect on glycine dose-response of [3H]TCP binding,[5]; glycine concentrations below 0.1 μM,potentiated the glycine stimulation
same,effect on glycine stimulation of [3H]TCP binding,[5]; in the presence of glycine 0.1-0.6 μM,reduces the maximal level of glycine stimulation
NCC(=O)O [Glycine],maximum specific [3H]TCP binding,"[5]; 0.6 μM glycine, basal binding 2583±381 DPM",4712±779 DPM
c1csc(C2(N3CCCCC3)CCCCC2)c1 [[^3H]TCP],Kd,[5]; basal conditions,44 nM
